Key:
Assay type in all cases: cell-based
cortisol = assay: Cortisol produced by skin explants stimulated by ACTH + 42° C. (ELISA); conditions: Metyrapone 1 mM
Procedure: Skin explants were treated topically with a formulation (cream) containing 1% tea oil concentrate, or its placebo, or treated systemically (in the culture medium) with 0.001% tea oil concentrate and the positive reference metyrapone at 1 mM. The explants were incubated for 24 hours then stressed with 0.6 μM ACTH (Adreno Corticotropic Hormone), a hormone that induces cortisol production. This stress was coupled with explant culture in a 42° C. incubator to potentiate the increase in cortisol production. The explants were again treated with topical products or the active ingredient and the positive reference systemically. After 24 hours of incubation, the culture media were recovered and an ELISA assay for cortisol was performed. The results were statistically analyzed by Student's test t.

[1] = test system: CXCL1, IL8, IL6, CCL2, SOD2, HAS2, MMP1, MMP3 gene expression in normal human dermal fibroblasts; assay: Inflamm'aging model: gene expression in fibroblasts incubated with conditioned media of PMA-stimulated reconstructed epidermis; conditions: Dexa. 1 μM; control = 100
Procedure: Tea oil concentrate was evaluated in an in vitro model reproducing the process of “inflammaging”: inflammation, represented by the stimulation of IL-1 alpha production, is induced on reconstructed epidermis. The conditioned media of these reconstructed epidermis are then applied to fibroblasts and the expression of dermal markers, altered by IL1a produced by the epidermis, is evaluated.
Reconstructed epidermis were treated topically with a formulation (cream) containing 1% tea tree oil concentrate or its placebo, or systemically with 1 μM dexamethasone, an anti-inflammatory reference. After 24 hours of pre-incubation, epidermis were stimulated with 0.5 μg/ml of PMA and incubated again for 24 hours.
Culture subnatants were collected, IL-1 alpha assay was performed on the one hand, and on the other hand, these subnatants (conditioned media) were deposited on cultures of normal human dermal fibroblasts.
After 24 hours of incubation of fibroblasts in the presence of conditioned media, the expression of markers of interest was assessed by real-time quantitative PCR.
(§1) The results were statistically analyzed using ANOVA followed by Tukey's test.

[2] = test system: interleukin-1 alpha (IL-1 alpha); assay: IL-1 alpha produced by normal human keratinocytes under PMA-induced inflammatory stress (ELISA); conditions: Dexamethasone 0.1 μM, PMA 10 μg/ml
Procedure: (§2) The anti-inflammatory activity of tea oil concentrate (THE) was investigated by assaying interleukin-1 alpha (IL-1 alpha) produced by keratinocytes in response to pro-inflammatory stress induced by PMA (Phorbol-Myristate-Acetate) in a normal human keratinocyte model, in a reconstructed epidermis model subjected to PMA stress, as well as in a reconstructed epidermis model subjected to SDS (Sodium Dodecyl Sulfate) stress.
Normal human keratinocytes were pre-incubated for 24 hours in the presence of 0.001%, 0.005% or 0.01% tea tree oil concentrate or 0.1 μM dexamethasone, an anti-inflammatory reference. The cells were then stimulated by overnight treatment in the presence of 10 μg/mL PMA (Phorbol-Myristate-Acetate).
At the end of treatment, IL-1 alpha produced was quantified by ELISA assay in culture supernatants.
The results were statistically analyzed by one-way analysis of variance (ANOVA), followed by Tukey post-test.

Interleukin-1 alpha = assay: IL-1 alpha produced by reconstructed epidermis stimulated by PMA; conditions: Dexamethasone 1 μM systemically; PMA 0.5 μg/mL
Procedure: as §2
Reconstructed epidermis were treated topically with a formulation (cream) containing 1% tea tree oil concentrate or its placebo, or systemically with 1 μM dexamethasone, an anti-inflammatory reference. After 24 hours of pre-incubation, epidermis were stimulated with 0.5 μg/mL of PMA and incubated again for 24 hours.
Culture subnatants were collected then IL-1 alpha assay was performed.
as §1
Reconstructed epidermis were treated topically with a formulation (cream) containing 1% tea tree oil concentrate or its placebo, or systemically with 1 μM dexamethasone, an anti-inflammatory reference. After 24 hours of pre-incubation, epidermis were stimulated with 0.5 μg/ml of PMA and incubated again for 24 hours. […]

[3] = test system: dermal matrix markers (Collagen III, Fibrillin 1); assay: Gene expression of dermal matrix markers in normal human dermal fibroblasts (real-time PCR); conditions: TGFβ 1 5 ng/ml, 48 hours
Procedure: The effect of tea oil concentrate on the expression of dermal matrix markers was evaluated in cultured normal human dermal fibroblasts.
Normal human dermal fibroblasts were incubated for 48 hours in the presence of 0.001% and 0.005% tea oil concentrate or 5 ng/ml TGFβ1, the positive reference of the test.
Gene expression of Collagen Ill and Fibrillin 1 was evaluated by quantitative real-time PCR. The results were statistically analyzed by one-way analysis of variance (ANOVA), followed by Dunnett's post-test.

[4] = ACTH 0.6 μM + 42° C., Table 16 (systemic series)

For CC(C)(C(=O)c1cccnc1)c1cccnc1 [Metyrapone, metyrapone], the “Cortisol % Protection” value (cortisol; [4]) was 70%, the “Cortisol Relative quantification” value (cortisol; [4]) was 1.08 ± 0.12 and the “Cortisol Relative quantification” value (cortisol; ACTH 0.6 μM + 42° C., Table 17 (topical series)) was 1.08 ± 0.12. For the same molecule, the “Cortisol % Protection (vs ACTH/42° C.)” value (cortisol; Table 17 (topical series)) was 73%.
In the case of C[C@@H]1C[C@H]2[C@@H]3CCC4=CC(=O)C=C[C@]4(C)[C@@]3(F)[C@@H](O)C[C@]2(C)[C@@]1(O)C(=O)CO [Dexamethasone, dexamethasone], the “CCL2 expression level in relative quantity” value [1] is reported as 193, the “CXCL1 expression level in relative quantity” value [1] is reported as 1503 and the “HAS2 expression level in relative quantity” value [1] is reported as 104. The “IL6 expression level in relative quantity” value [1] was 305, the “IL8 expression level in relative quantity” value [1] was 1350 and the “MMP1 expression level in relative quantity” value [1] was 52. The “MMP3 expression level in relative quantity” value [1] was 74, the “SOD2 expression level in relative quantity” value [1] was 354 and the IL-1 alpha ([2]; 24 h pre-incubation) was 66.6 ± 0.5 pg/mL. For the same molecule, the “Protection (%)” value [2] was 74%, the “% Protection” value (Interleukin-1 alpha) was 48% and the Interleukin-1 alpha (Interleukin-1 alpha) was 334 ± 41 pg/mL.
“TGFβ 1: the positive reference of the test” was tested, and the “Collagen III gene expression (Relative Quantity)” value [3] was 1.55 ± 0.25, the “Fibrillin 1 gene expression (Relative Quantity)” value [3] was 1.53 ± 0.18 and the “Collagen III gene expression % induction” value ([3]; vs control cells) was “+78% p < 0.05”. The “Fibrillin 1 gene expression % induction” value ([3]; vs control cells) was “+74% p < 0.05”.
